Values quoted from earlier work in patent publication US20060121016A1, “Methods and compositions for treatment of free radical injury” (priority 2004, published 2006).

Settings: administered both before and after the operation

Oc1ncnc2[nH]ncc12 [allopurinol]
Reduction of incidence of complication following surgery: 70%
